US8084449B2, “Dual pharmacophores—PDE4-muscarinic antagonistics” (Glaxo Group Limited, priority 2008, dated 2011)

Experiments:
[1] = test system: human M1, M2 and M3 ACh receptors stably expressed in CHO cells; test: Calcium mobilization (FLIPR) IC50 determination for antagonists: inhibition of ACh induced muscarinic receptor activation; assay type: cell-based; conditions: EC80 concentration of ACh, active if IC50 of between 33 uM and 10 nM or less, receptor subtype not specified for the statement
Excerpt: Studies to determine the effectiveness of antagonists to cause blockade of functional intracellular calcium fluxes following agonist (ACh) treatment of cloned human receptors. This system is used for characterizations of antagonist-receptor interactions using four distinct variations of the FLIPR methodology: (a) potency: IC50 determination, (b) potency: pA2 determination, (c) reversibility of antagonist-receptor interaction, or (d) confirmation of no functional agonist activity.
Cell Source The human M1-M3 receptors are cloned and stably expressed in Chinese Hamster Ovary (CHO) cells. The M2 receptors are co-expressed with the chimeric G protein, Gqi5.
Method of Culture: CHO-M1, CHO-Gqi5-M2 and CHO-M3 cells are cultured to confluence at 37° C. in a humidified incubator with 5% CO2/95% air. […] The emitted fluorescence from all 96 wells is measured simultaneously using a cooled CCD camera. […]
Cell plating: A microtiter plate based calcium mobilization FLIPR (Fluorometric Imaging Plate Reader, Molecular Devices, Sunnyvale Calif., [Schroeder K S, Neagle, B D. FLIPR: a new instrument for accurate, high throughput optical screening. J. Biomol. Screen. 1996; 1:75.]) assay is used for the functional characterization of compounds against M1, M2 (w/Gqi5) and M3 ACh receptors stably expressed in CHO cells. […]

melting point [°C]	SMILES	IC50 (compound pretreatment concentration which inhibits 50% of the ACh induced response), activity rating [1]
146 to 147	NC(=O)c1ccc(Cl)c(Br)c1	–
–	CCc1nc2c(cnn2CC)c(NC2CCOCC2)c1CNC(=O)c1cccc(C(=O)NCc2ccc(OC)c(-c3cccc(CN4CCN[C@@H](C)C4)c3)c2)n1 [Example 157, N-{[1,6-Diethyl-4-(tetrahydro-2H-pyran-4-ylamino)-1H-pyrazolo[3,4-b]pyridin-5-yl]methyl}-N′-[(6-(methyloxy)-3′-{[(3S)-3-methyl-1-piperazinyl]methyl}-3-biphenylyl)methyl]-2,6-pyridinedicarboxamide]	most active
